CCCSc1ccc2nc(NC(=O)OC)[nH]c2c1
solubility (mole fraction)
Conditions | in acetone | in ethanol | in ethyl acetate | in isobutyl acetate | in isopropanol | in methanol | in n-butanol | in n-butyl acetate | in n-propanol | in n-propyl acetate
278.15 K | 0.00148 | 5.59e-05 | 0.00053 | 0.000491 | 9.89e-05 | 9.62e-05 | 0.00021 | 0.000553 | 0.00017 | 0.000468
283.15 K | 0.00173 | 7.25e-05 | 0.000596 | 0.000542 | 0.000128 | 0.000114 | 0.000254 | 0.000609 | 0.000192 | 0.00054
288.15 K | 0.00204 | 9.39e-05 | 0.000688 | 0.000594 | 0.000156 | 0.000133 | 0.000298 | 0.000691 | 0.00023 | 0.000598
293.15 K | 0.00253 | 0.00011 | 0.000805 | 0.000671 | 0.000187 | 0.000157 | 0.000343 | 0.000783 | 0.000276 | 0.000673
298.15 K | 0.00302 | 0.00014 | 0.000925 | 0.000749 | 0.000234 | 0.000174 | 0.000402 | 0.000873 | 0.000325 | 0.000777
303.15 K | 0.00349 | 0.000182 | 0.00103 | 0.000799 | 0.000272 | 0.000205 | 0.000473 | 0.000983 | 0.000371 | 0.000858
308.15 K | 0.00389 | 0.000234 | 0.00119 | 0.000873 | 0.000328 | 0.000257 | 0.000558 | 0.0011 | 0.000423 | 0.000962
313.15 K | 0.00442 | 0.000297 | 0.00133 | 0.000964 | 0.000394 | 0.000298 | 0.00063 | 0.0012 | 0.000488 | 0.00106
318.15 K | 0.00528 | 0.000364 | 0.0015 | 0.00109 | 0.000456 | 0.000363 | 0.000738 | 0.00132 | 0.000569 | 0.00117
323.15 K | 0.00589 | 0.000452 | 0.00167 | 0.00119 | 0.000553 | 0.000428 | 0.000829 | 0.00146 | 0.000624 | 0.0013
